Measurements reported in patent publication US20080312164A1 (priority 2006, published 2008).
Marks after values point to notes of the source that are not given here.

Columns and labels:
Du145 cells [1] = test: Calcein AM cytotoxicity assay, Du145; assay type: cell-based; conditions: Homo sapiens, DU-145; Du145, Calcein AM, 72 h; read-out: IC50
From the text: (§1) Five serial 1:2 dilutions were made with anhydrous DMSO at 100× the final concentration used in the assay.

Du145 cells [2] = test: Cell Titer-Glo cytotoxicity assay, Du145; assay type: cell-based; conditions: Homo sapiens, DU-145; Du145, Cell Titer-Glo, 72 h; read-out: IC50
From the text: as §1

HCT-116 cells [3] = test: Calcein AM cytotoxicity assay, HCT-116; assay type: cell-based; conditions: Homo sapiens; HCT-116, Calcein AM, 72 h; read-out: IC50
From the text: as §1

HCT-116 cells [4] = test: Cell Titer-Glo cytotoxicity assay, HCT-116; assay type: cell-based; conditions: Homo sapiens; HCT-116, Cell Titer-Glo, 72 h; read-out: IC50
From the text: as §1

Hep3B cells [5] = test: Calcein AM cytotoxicity assay, Hep3B; assay type: cell-based; conditions: Homo sapiens, Calcein AM, 72 h, read-out: IC50
From the text: as §1

Hep3B cells [6] = test: Cell Titer-Glo cytotoxicity assay, Hep3B; assay type: cell-based; conditions: Homo sapiens, Cell Titer-Glo, 72 h, read-out: IC50
From the text: as §1

SF-268 cells [7] = test: Calcein AM cytotoxicity assay, SF-268; assay type: cell-based; conditions: Homo sapiens; SF-268, Calcein AM, 72 h; read-out: IC50
From the text: as §1

SF-268 cells [8] = test: Cell Titer-Glo cytotoxicity assay, SF-268; assay type: cell-based; conditions: Homo sapiens; SF-268, Cell Titer-Glo, 72 h; read-out: IC50
From the text: as §1

SK-OV-3 cells [9] = test: Calcein AM cytotoxicity assay, SK-OV-3; assay type: cell-based; conditions: Homo sapiens; SK-OV-3, Calcein AM, 72 h; read-out: IC50
From the text: as §1

SK-OV-3 cells [10] = test: Cell Titer-Glo cytotoxicity assay, SK-OV-3; assay type: cell-based; conditions: Homo sapiens; SK-OV-3, Cell Titer-Glo, 72 h; read-out: IC50
From the text: as §1

NCI-H460 cells [11] = test: Calcein AM cytotoxicity assay, NCI-H460; assay type: cell-based; conditions: Homo sapiens; NCI-H460, Calcein AM, 72 h; read-out: IC50
From the text: as §1

NCI-H460 cells [12] = test: Cell Titer-Glo cytotoxicity assay, NCI-H460; assay type: cell-based, human; conditions: for IC50: NCI-H460, Cell Titer-Glo, 72 h
From the text: as §1

MCF7 cells [13] = test: Calcein AM cytotoxicity assay, MCF7; assay type: cell-based; conditions: Homo sapiens; MCF7, Calcein AM, 72 h; read-out: IC50
From the text: as §1

MCF7 cells [14] = test: Cell Titer-Glo cytotoxicity assay, MCF7; assay type: cell-based, human; conditions: for IC50: Homo sapiens, MCF7, Cell Titer-Glo, 72 h, read-out: IC50
From the text: as §1

[15] = system: NmuMG mouse mammary normal epithelial cells; test: Calcein AM cytotoxicity assay, NmuMG; assay type: cell-based; conditions: Epithelial cell, NmuMG, Calcein AM, 72 h, read-out: IC50
From the text: as §1

[16] = system: NmuMG mouse mammary normal epithelial cells; test: Cell Titer-Glo cytotoxicity assay, NmuMG; assay type: cell-based; conditions: Mus musculus, Epithelial cell; NmuMG, Cell Titer-Glo, 72 h; read-out: IC50
From the text: as §1

HT-29 cells = test: MTT cytotoxicity assay, HT-29; assay type: cell-based; conditions: Homo sapiens; HT-29, MTT, 24 h; read-out: IC50
From the text: The IC50 value for each library member represents at least twelve replicates of dose-response experiments conducted over five concentrations. […] In this assay, live cells were distinguished by the intracellular enzymatic activity that converts the cell-permeable molecule MTT to strongly colored formazan crystals, which are retained within live cells and absorb light at 570 nm.
MTT Cytotoxicity Assay. HT-29 cell lines were maintained in RPMI medium 1640 supplemented with 10% (wt/vol) FBS and 1% penicillin-streptomycin (PS) (100 units/mL and 100 μg/mL). Cells were harvested by trypsinization using 0.25% trypsin and 0.1% EDTA and plated at a density of 2,000-5,000 cells per well of each 96-well microtiter plate. Cells were grown for 24 h at 37° C., with 5% CO2/95% air in a humidified incubator to allow cell attachment to occur before compound addition. Library members were stored at −20° C. under desiccating conditions before the assay. Library member stocks (1000×) were prepared in falcon tubes (BD Biosciences). Five dilutions were made with DMSO at 1000× the final concentration used in the assay. The 1000× stocks (3 μL) were diluted with complete culture medium (3 mL). Each plate contained twelve replicates of cells treated with 0.1% DMSO in complete cell culture medium that served as an individual negative control. Library member stocks (1×, 200 μL) were added to aspirated cells and replicated twelve times on each plate. Cells were incubated with the library members for 24 h before optical density reading. Test plates were removed from the incubator and washed once in sterile PBS to remove serum containing library members. Freshly-made 10×MTT solution in sterile PBS (5 mg/mL) was diluted 1:10 in serum-free culture medium and was sterilized using a 0.2 μm filter. Diluted MTT solution (1×, 50 μL) was added to each well and the plates were incubated in the dark for 2 h. Test plates were centrifuged at 1800×g for 5 min at 4° C. using a Beckman GPR centrifuge. MTT solution was removed by aspiration and 100 μL DMSO was added to each well to lyse cells and solubilize formazan crystals. Test plates were incubated in the dark at room temperature for 10 min. Plates were read for optical density at 570 nm.
IC50 Calculations. For each library member, at least three dose-response experiments were conducted on separate plates. […] To calculate IC50, percent inhibitions were plotted as a function of log[concentration] and then fit to a four-parameter logistic model that allowed for a variable Hill slope by using XLFIT 4.1 (ID Business Solutions, Emeryville, Calif.).

human cancer cell lines = test: Cytotoxicity across the panel of human cancer cell lines (average, high-throughput assays); assay type: cell-based; conditions: for Cancerous Average IC50 / Average IC50 in Cancer Cell Lines / IC50: average across eight human cancer cell lines, MTT (HT-29) values excluded; for IC50: read-out: Cancerous Average IC50 / Average IC50 in Cancer Cell Lines
From the text: as §1

NCI/ADR RES cells [17] = test: Calcein AM cytotoxicity assay, NCI/ADR-RES; assay type: cell-based; conditions: Homo sapiens, Calcein AM, 72 h, read-out: IC50
From the text: as §1

NCI/ADR RES cells [18] = test: Cell Titer-Glo cytotoxicity assay, NCI/ADR-RES; assay type: cell-based, human; conditions: for IC50: Homo sapiens, NCI/ADR-RES, Cell Titer-Glo, 72 h, read-out: IC50
From the text: as §1

Compound	IC50 (Du145 cells [1])	IC50 (Du145 cells [2])	IC50 (HCT-116 cells [3])	IC50 (HCT-116 cells [4])	IC50 (Hep3B cells [5])	IC50 (Hep3B cells [6])	IC50 (SF-268 cells [7])	IC50 (SF-268 cells [8])	IC50 (SK-OV-3 cells [9])	IC50 (SK-OV-3 cells [10])	IC50 (NCI-H460 cells [11])	IC50 (NCI-H460 cells [12]; Homo sapiens, read-out: IC50)	IC50 (MCF7 cells [13])	IC50 (MCF7 cells [14])	IC50 [15]	IC50 [16]	IC50 (HT-29 cells)	IC50 (human cancer cell lines)	IC50 (NCI/ADR RES cells [17])	IC50 (NCI/ADR RES cells [18])	further results
S=C=N[C@@H]1CCCc2ccccc21 [Compound 32, (R)-1-isothiocyanato-1,2,3,4-tetrahydronaphthalene]	5.27 µM	8.66 µM	12.5 µM	9.05 µM	< 3.13 µM	3.59 ± 0.16 µM	5.75 µM	7.73 µM	5.18 µM	7.74 µM	18.7 µM	13.3 µM	3.88 µM	7.83 µM	17.2 µM	17 µM	20.4 µM	8.27 µM			Cancerous Average IC50 / Average IC50 in Cancer Cell Lines (human cancer cell lines): 8.27^g μM; fold more potent than 23 (human cancer cell lines; in general, across cell lines): ~1.2 fold; fold more potent than the S-enantiomer 31 (human cancer cell lines; in general, across cell lines): approximately 2.0 fold
S=C=N[C@H]1CCCc2ccccc21 [Compound 31, (S)-1-isothiocyanato-1,2,3,4-tetrahydronaphthalene]	12.4 µM	17.4 µM	33 µM	12.2 µM	13.1 µM	20.1 ± 0.53 µM	8.51 µM	10.5 µM	> 30 µM	12.7 µM	25.4 µM	31.6 µM	14.5 µM	14.4 µM	18.6 µM	15.4 µM	> 50 µM	17.2 µM	25.1 µM	30.9 µM	
S=C=NCCc1ccccc1 [Compound 38, 1-(2-isothiocyanatoethyl)benzene]	43.1 µM	10.9 µM	12.7 µM	10.3 µM	46.2 µM	11.1 µM	8.66 µM	7.2 µM	16.7 µM	13.5 µM	12.1 µM	13.7 µM	23.7 µM	13.1 µM	< 12.5 µM	17.7 µM	33.2 µM	11.5 µM	10.5 µM	12.1 µM	
S=C=NCc1cccc2ccccc12 [Compound 30, 1-(isothiocyanatomethyl)naphthalene]	8.31 µM	16.8 µM	> 20 µM	4.55 µM	15.2 µM	19.8 µM	2 µM	3.39 µM	3.22 µM	4.89 µM	12.6 µM	13.3 µM	< 3.13 µM	2.27 µM	13.8 µM	21.4 µM	> 50 µM	9.16 µM	8.93 µM	9.71 µM	
COc1cc(OC)c(CN=C=S)c(OC)c1 [Compound 28, 2-(isothiocyanatomethyl)-1,3,5-trimethoxybenzene]	2.54 µM	4.8 µM	9.23 µM	4.55 µM	1.87 µM	3.21 µM	4.61 µM	3.05 µM	3.93 µM	4.75 µM	11.9 µM	10.8 µM	5.75 µM	3.15 µM	2.94 µM	2.09 µM	17 µM	6.53 µM	12 µM	15.2 µM	
S=C=NCc1ccc(Br)cc1 [Compound 26, 1-bromo-4-(isothiocyanatomethyl)benzene]	7.67 µM	10.1 µM	5.16 µM	9.8 µM	7.16 µM	6.8 µM	10.9 µM	6.96 µM	3.94 µM	7.17 µM	16 µM	> 20 µM	7.08 µM	5.92 µM	18.3 µM	9.77 µM	47.4 µM	10.7 µM	> 20 µM	22.3 µM	
S=C=NCc1cccc(-c2ccccc2)c1 [Compound 34, 1-(isothiocyanatomethyl)-3-phenylbenzene]	7.11 µM	3.87 µM	2.93 µM	3.33 µM	6.9 µM	2.11 µM	3.95 µM	3.39 µM	4.92 µM	3.83 µM	3.53 µM	5.29 µM	2.52 µM	2.13 µM	5.95 µM	3.06 µM	28.8 µM	3.27 µM	1.47 µM	2.23 µM	selectivity for cancer cells over NmuMG cells (human cancer cell lines; IC50 in NmuMG versus average IC50 in cancer cell lines): non-selective; further fold increase in potency from multiple phenyl rings (human cancer cell lines; average IC50 compared with single-ring 23 and 38): ~2 fold
C[S@+]([O-])CCCCN=C=S [D-sulforaphane]																					% bioactive (relative to L-sulforaphane) (NCI/ADR RES cells [18]; NCI/ADR RES, inferred from racemate 13 versus 2): 9%; % bioactive (relative to L-sulforaphane) (NCI-H460 cells [12]; NCI-H460, inferred from racemate 13 versus 2): 14%; % bioactive (relative to L-sulforaphane) (MCF7 cells [14]; MCF7, inferred from racemate 13 versus 2): 0%
COc1cccc(CN=C=S)c1OC [Compound 27]	2.46 µM	8.24 µM	< 1.88 µM	6.72 µM	1.37 µM	4.87 µM	4.26 µM	3.21 µM	2.55 µM	5.47 µM	15.8 µM	16.1 µM	5.81 µM	3.22 µM	5.59 µM	3.78 µM			5.61 µM	20.8 µM	
S=C=NCc1ccccc1 [Compound 23, 1-(isothiocyanatomethyl)benzene]	5.37 µM	4.64 µM	11.5 µM	3.19 µM	22.5 µM	9.7 ± 0.37 µM	11.5 µM	8.27 µM	7.18 µM	8.86 µM	22.9 µM	14.5 µM	16 µM	10.6 µM	< 12.5 µM	15.4 µM	31.4 µM	9.47 µM	15.5 µM	11.5 ± 0.77 µM	fold increase in potency versus fully-saturated 18 (human cancer cell lines; average IC50 compared): > 3 fold
S=C=NCC1CCCCC1 [Compound 18, (isothiocyanatomethyl)cyclohexane]	18.7 µM	24.4 µM	21.9 µM	20.9 µM	42.1 µM	29.3 µM	15.1 µM	15.4 µM	29.1 µM	33.7 µM	48.1 µM	> 50 µM	> 30 µM	33.3 µM	22.5 µM	14.8 µM	> 50 µM	29.3 µM	> 50 µM	> 50 µM	Cancerous Average IC50 / Average IC50 in Cancer Cell Lines (human cancer cell lines): 29.31^d μM
CCCCc1ccc(N=C=S)cc1 [Compound 21, 1-butyl-4-isothiocyanatobenzene]	> 50 µM	48 µM	> 50 µM	19.4 µM	> 50 µM	> 50 µM	21.5 µM	32.1 µM	15.9 µM	31.4 µM	> 50 µM	> 50 µM	45.8 µM	45.4 µM	71.9 µM	65.7 µM	> 50 µM	35.2 µM	> 50 µM	> 50 µM	IC50 (NCI-H460 cells [12]): ^fNon-inhibitory in Hep3B, NCI/ADR RES, NCI-H460; Cancerous Average IC50 / Average IC50 in Cancer Cell Lines (human cancer cell lines): 35.25^f μM
